We go through 1 sequence from publication PMC10487658, “Identification and Characterization of RK22, a Novel Antimicrobial Peptide from Hirudinaria manillensis against Methicillin Resistant Staphylococcus aureus” (International Journal of Molecular Sciences, 2023).

One data set concerns S. aureus (ATCC6538). Type of data set: in vitro ADME, Staphylococcus aureus. On the procedure: We determined the stability of RK22 in plasma according to the previously reported method. Briefly, an equal volume of RK22 was mixed with human plasma and diluted to a concentration of 5 mg/mL. The MICs of RK22 against S. aureus ATCC6538 and methicillin-resistant S. aureus MRSA-Z were determined after incubation at 37 °C for different times (0, 2, 4, 6, 8, and 10 h).

For a further data set, the system named is A. baumannii, ATCC19606. Type of data set: cell-based, Acinetobacter baumannii. To be noted: RPMI 1640, 2 × 10^5 CFU/mL, 37 °C, 12–16 h, absorbance at 600 nm. On the procedure: The bacterial strains used in this study included Pseudomonas aeruginosa (P. aeruginosa, ATCC27853), Acinetobacter baumannii (A. baumannii, ATCC19606), Escherichia coli (E. coli, ATCC8739), and S. aureus (ATCC6538, two clinically isolated strains (SA220823 and SA15772)), and three clinically isolated methicillin-resistant strains (MRSA-Z, MRSA11, and MRSA22). All strains were grown in Luria-Bertani (LB) broth.
The minimum inhibitory concentration (MIC) for all strains was determined using the […] assay based on a previous study with minor modifications. Initially, strains in the exponential phase were diluted to a concentration of 2 × 10^5 CFU/mL using RPMI 1640 medium (Corning, New York, NY, USA). Next, 100 μL of the bacterial suspension was mixed with 100 μL of the sample solution (final concentration 0–200 μg/mL in RPMI 1640 medium) in 96-well plates. The plates were then incubated at 37 °C for 12–16 h. After incubation, the absorbance at 600 nm was measured, and the MIC was determined as the lowest concentration of the test sample in which no bacterial growth was detected in the well.

The next data set concerns P. aeruginosa, ATCC9027. The data set is classed as cell-based, Pseudomonas aeruginosa. To be noted: P. aeruginosa ATCC9027 in Table 3; RPMI 1640, 37 °C, 12–16 h, absorbance at 600 nm.
The subject of the next data set is C57BL/6 mice. Type of data set: in vivo, mouse. To be noted: male C57BL/6 mice, 96 h; for survival: n = 8. On the procedure:
Male C57BL/6 mice (6–8 weeks of age) were randomly divided into three groups of eight mice per group. Either normal saline or RK22 (20 and 40 mg/kg) was injected intravenously via the tail vein. […] For histopathological analysis, sections of lung, liver, spleen, and kidney were fixed with 4% paraformaldehyde, embedded in paraffin wax, and stained with hematoxylin and eosin (H&E).
Figure S2. In vivo acute toxicity of RK22. Male C57BL/6 mice (6–8 weeks of age, n = 8 /group) were injected intravenously via the tail vein with saline or RK22 (20 and 40 mg/kg). Mice were observed for survival status within 96 h of the injection (A) and blood was collected via retro-orbital bleeding for routine blood analysis (B-E). The sections of lung, liver, spleen and kidney were stained […]
(1 picture or pasted object on this page, not shown here)

The next data set concerns HEK293T cells. Description: Cytotoxicity assay (CCK8). To be noted: up to 400 μg/mL, 24 h, CCK8, absorbance 450 nm, 3 independent experiments. Type of data set: cell-based. On the procedure:
In the cytotoxicity assay, HEK293T cells were cultured with Dulbecco’s Modified Eagle Medium (DMEM) (Corning, New York, NY, USA) consisting of 10% fetal bovine serum (FBS, Corning, New York, NY, USA) and 1% penicillin-streptomycin liquid (Solarbio, Beijing, China). After digestion using trypsin (Gibco, New York, NY, USA), the cell suspension (100 μL, 1 × 10^5 cells/mL, […]) was inoculated into each well of a 96-well plate. Once the cells were completely adherent, the supernatant was discarded, and fresh medium with or without 100 μL of RK22 (final concentration 6.25–400 μg/mL) was added to the 96-well plates. […] The plate was then incubated at 37 °C for an additional 1–4 h, with absorbance then measured at 450 nm. […]
Figure S1. […] After incubation for 60 min at 37°C, cells were centrifuged (3,500 rpm, 5 min) and the absorbance of the supernatant was measured at 540 nm. The value for “zero hemolysis” was determined using sterile saline (negative control, NC), while 100% hemolysis was established using 1% (v/v) Triton X-100 (PC: positive control). Hemolysis of testing sample was calculated as the percentage of Triton X-100-induced hemolysis. […] Cell viability was determined by adding 10 μl CCK8 in to the cells and incubated for 1-4 h. The absorbance at 450 nm of the solution was measured with a microplate reader. […]

Another data set concerns E. coli, ATCC25922. Type of data set: cell-based, Escherichia coli. To be noted: E. coli ATCC25922; RPMI 1640, 37 °C, 12–16 h, absorbance at 600 nm.
The next data set has as its system washed platelets. Description: Platelet activity assay, flow cytometry. Type of data set: cell-based. Conditions: mouse washed platelets, 20, 10, 5, 2.5 μg/mL, 10 min, P-selectin. As to the method: Platelets were isolated from the mice as described in a previous study with minor modifications. The effect of RK22 and LL-37 on platelet activity was detected by flow cytometry. Mouse blood was mixed with Tyrode’s buffer A (137 mM NaCl, 2 mM KCl, 0.3 mM NaH2PO4, 12 mM NaHCO3, 5.5 mM glucose, 0.35% BSA, 1 mM MgCl2, and 0.2 mM EDTA, pH 6.5) and centrifuged (150× g, 10 min, room temperature) to obtain platelet-rich plasma (PRP), which was then pelleted (400× g, 5 min, room temperature), washed with Tyrode’s buffer A, and finally resuspended in Tyrode’s buffer B (137 mM NaCl, 2 mM KCl, 0.3 mM NaH2PO4, 12 mM NaHCO3, 5.5 mM glucose, 0.35% BSA and 2 mM CaCl2, pH 7.4). Antibodies against P-selectin (Biolegend, San Diego, CA, USA) were added to the platelets, followed by incubation for 10 min at room temperature. Samples (20, 10, 5, and 2.5 μg/mL) or normal saline were added, respectively, and analyzed by flow cytometry (BD, LSRFortessa^TM, Franklin Lakes, NJ, USA).
(In general: Flow cytometry measures light scatter and fluorescence of single cells or particles in a stream.)

Read-outs that look alike come from different tables or passages of the source. No end group written: not given here.

Consider RKYKEKKDKSQNKKKKRKCMIL [RK22], for which, in the data set on S. aureus (ATCC6538), the “MIC after incubation in plasma” value amounted to 6.25 mg/L. Further, in the data set with A. baumannii, ATCC19606, the MIC (usually the lowest concentration that inhibits growth of the organism) was 100 mg/L. This sequence also came in with a minimum inhibitory concentration (MIC) with P. aeruginosa, ATCC9027 of more than 100 mg/L. In addition, in the data set with C57BL/6 mice (20 and 40 mg/kg iv), the “hemoglobin (HGB)” value is on record as “did not induce any changes”; the “histopathological analysis (H&E) of lung, liver, spleen and kidney” value was “no obvious tissue injury”; the platelets entry is recorded as “did not induce any changes”; the red blood cells entry is “did not induce any changes”. Further, the white blood cells result in the data set on C57BL/6 mice (20 and 40 mg/kg iv) is given as “did not induce any changes”. Besides, the survival result with C57BL/6 mice (single dose 20 mg/kg intravenously via the tail vein) is reported as “did not result in any fatalities”. Moreover, the survival entry in the data set with C57BL/6 mice (single dose 40 mg/kg intravenously via the tail vein) is on record as “did not result in any fatalities”. For the same sequence, the cytotoxicity entry with HEK293T cells is on record as “did not demonstrate any noticeable cytotoxic effects”. This sequence also showed an MIC against E. coli, ATCC25922 of 25 mg/L. Further, in the data set with washed platelets, the platelet activation result is “did not exert any such effects”.
